Results reported in publication PMC7577125 (Antimicrobial Agents and Chemotherapy, 2020).
Values joined by “and” are separate entries in the source; they are usually repeats but may differ in a detail not shown here. Equal values may be shown once. Read-outs that look alike come from different tables or passages of the source.

Experiments:
HBV [1] = experiment: Dose response of ETV and ABI-H0731 alone and in combination in induced HepAD38 cells; type: cell-based, Hepatitis B virus
Procedure: Viral replication was evaluated by quantifying the levels of total HBV DNA in the cells by qPCR. […] In both cases, the data are plotted as a function of each drug’s concentration relative to its VR EC50.

CYP3A = CYP3A (Homo sapiens, UniProt P08684); experiment: CYP inhibition in human liver microsomes, 3A
HBV cccDNA [2] = experiment: cccDNA formation assay in infected HepG2-NTCP cells (Southern blot); type: cell-based; conditions: Hepatitis B virus, 96 h, 4 days, read-out: cccDNA % of Control
HBV Cp P25A = experiment: microbe, parasite or virus in culture; type: cell-based, Hepatitis B virus
HBV Cp I105L = experiment: microbe, parasite or virus in culture; type: cell-based, Hepatitis B virus
HBV Cp T33N = experiment: microbe, parasite or virus in culture; type: cell-based, Hepatitis B virus
HBV Cp T109M = experiment: microbe, parasite or virus in culture; type: cell-based, Hepatitis B virus
[3] = test system: herpes simplex virus 1, human rhinovirus 16, influenza A virus; experiment: Cell protection assays with 3 unrelated viruses; conditions: concentrations of up to 10 μM
CYP1A2 = CYP1A2 (Homo sapiens, UniProt P05177); experiment: biochemical
HBV [4] = test system: HBV; set-up: method as in PMID 31711752; conditions: HBeAg-negative patient, day 28 of monotherapy; cited from earlier work
HBV [5] = experiment: HBV RNA/DNA analyses in induced HepAD38 cells (Northern/Southern blot); type: cell-based, Hepatitis B virus; conditions: for activity at 2 µM: Hepatitis B virus, HePAD38
CYP2B6 = target: T1, CYP2B6 (Homo sapiens, UniProt P20813); experiment: CYP inhibition in human liver microsomes, 2B6; type: in vitro ADME; conditions: 0.1–100 μM
T1 construct: in human liver microsomes; from tissue; host or cells: human liver microsomes

in vitro [6] = conditions: rat, plasma
HBV cccDNA [7] = experiment: cccDNA formation assay in infected PHH cells (Southern blot); type: cell-based; conditions: Hepatitis B virus, 96 h, 4 days, read-out: cccDNA % of Control
in vitro [8] = conditions: mouse, plasma
HBV genotype A = experiment: microbe, parasite or virus in culture; type: cell-based; conditions: Hepatitis B virus, read-out: Mean antiviral EC50
HBV cell culture models = conditions: concentrations of up to 10 μM
HBV [9] = experiment: HBV DNA replication in cell culture systems (HepAD38, HepG2-NTCP, PHHs), summary; conditions: Hepatitis B virus, HePAD38, read-out: EC50, inhibition of HBV DNA replication
Excerpt: The first is an HBV-inducible cell line (HepAD38) that bears a single “1.1 copy” of the HBV genome (genotype D, subtype ayw) under the control of a cytomegalovirus (CMV) tetracycline (Tet)-off promoter ([13]), and the second utilizes HBV infection of either a HepG2-derived cell line stably expressing the HBV entry receptor sodium taurocholate cotransporting polypeptide (NTCP) (HepG2-NTCP) or primary human hepatocytes (PHHs). The primary marker measured for inhibition of HBV replication in the cell culture systems is viral DNA.
HepAD38 cells were trypsinized and then washed three times with phosphate-buffered saline (PBS) to remove traces of Tet. Cells were seeded into 96-well plates in assay medium (DMEM–F-12 medium with 2% Tet-free FBS) and treated with compounds. Supernatants and cells were harvested at 5 days postinduction.
HepG2-NCTP cells were infected with purified HepAD38 virus at a multiplicity of infection (MOI) of 50 in infection medium (DMEM, 5% FBS, 2% DMSO, 5% PEG 8000). Following infection, HepG2-NTCP cells were washed twice and switched to HepG2-NTCP treatment medium (DMEM, 5% FBS). PHHs were infected with HBV at an MOI of 50 in infection medium and grown in PHH maintenance medium for the duration of the experiment. Compounds were added after infection. […] Intracellular HBV DNA and pgRNA were measured by branch DNA (bDNA) assays (Thermo Fisher).

HBV [10] = experiment: HBV infection of primary human hepatocytes (PHHs); type: cell-based; conditions: Hepatitis B virus, Hepatocyte, PHH
[11] = test system: Huh7, HepG2, HeLa H1A, HEK293, NCI-H226, MOLT-4, PBMC
CYP2C19 = target: T2, CYP2C19 (Homo sapiens, UniProt P33261); experiment: CYP inhibition in human liver microsomes, 2C19; type: in vitro ADME; conditions: 0.1–100 μM
T2 construct: in human liver microsomes; from tissue; host or cells: human liver microsomes

in vitro [12] = conditions: rat, hepatocytes
[13] = rat, 1 μM
[14] = human, rat, cynomolgus monkey
Procedure: (§1) In vitro intrinsic clearance (CLint) was determined as follows. […] The calculated CLint was determined from the relationship CLint = k × (volume of incubation in ml/mg microsomal protein) × (mg protein in liver/g liver weight) × (g liver weight/kg body weight). The values for liver weights, body weights, as well as hepatic blood flows (QH) across species were obtained from data reported previously by Davies and Morris ([28]). Values for liver microsome protein/liver weight for mouse, rat, dog, and monkey were […] ([27]), and that for human was 33 mg/g. The calculation used for the prediction of hepatic clearance (CLpred) is CLpred = (QH × CLint)/(QH + CLint).

in vitro [15] = conditions: for half-life at 1 μM: hepatocytes; for half-life at 0.5 μM: microsomes
Procedure: as §1

in vitro [16] = conditions: human
[17] = Hepatitis B virus, Huh-7, read-out: Mean EC50

CYP3A, sequence (P08684 2-503): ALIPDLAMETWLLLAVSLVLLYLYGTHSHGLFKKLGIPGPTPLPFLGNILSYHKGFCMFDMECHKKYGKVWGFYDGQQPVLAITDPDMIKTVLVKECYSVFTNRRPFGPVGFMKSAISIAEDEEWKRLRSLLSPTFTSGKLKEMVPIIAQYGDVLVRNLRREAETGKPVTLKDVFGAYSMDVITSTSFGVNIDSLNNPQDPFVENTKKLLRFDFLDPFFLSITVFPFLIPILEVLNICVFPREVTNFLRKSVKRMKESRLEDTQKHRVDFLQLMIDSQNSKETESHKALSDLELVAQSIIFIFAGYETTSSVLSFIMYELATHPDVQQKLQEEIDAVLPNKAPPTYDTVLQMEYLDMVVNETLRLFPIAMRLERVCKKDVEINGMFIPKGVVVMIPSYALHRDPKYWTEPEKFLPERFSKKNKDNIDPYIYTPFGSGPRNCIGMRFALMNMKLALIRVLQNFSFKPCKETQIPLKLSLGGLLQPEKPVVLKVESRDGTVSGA
CYP1A2, sequence (P05177 whole entry): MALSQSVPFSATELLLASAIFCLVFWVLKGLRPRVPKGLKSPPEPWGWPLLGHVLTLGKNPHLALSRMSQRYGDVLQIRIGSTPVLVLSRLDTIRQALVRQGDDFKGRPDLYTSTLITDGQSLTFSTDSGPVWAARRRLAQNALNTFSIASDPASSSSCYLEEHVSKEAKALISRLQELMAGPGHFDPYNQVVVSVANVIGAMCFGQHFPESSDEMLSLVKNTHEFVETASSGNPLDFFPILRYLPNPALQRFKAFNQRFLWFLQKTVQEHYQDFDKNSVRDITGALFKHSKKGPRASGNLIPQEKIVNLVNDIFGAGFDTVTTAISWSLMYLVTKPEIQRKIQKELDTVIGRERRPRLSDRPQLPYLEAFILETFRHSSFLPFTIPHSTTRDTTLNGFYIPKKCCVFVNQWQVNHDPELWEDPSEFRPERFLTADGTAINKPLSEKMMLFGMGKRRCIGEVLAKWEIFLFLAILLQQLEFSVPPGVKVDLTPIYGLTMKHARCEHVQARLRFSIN
T2 sequence (P33261 whole entry): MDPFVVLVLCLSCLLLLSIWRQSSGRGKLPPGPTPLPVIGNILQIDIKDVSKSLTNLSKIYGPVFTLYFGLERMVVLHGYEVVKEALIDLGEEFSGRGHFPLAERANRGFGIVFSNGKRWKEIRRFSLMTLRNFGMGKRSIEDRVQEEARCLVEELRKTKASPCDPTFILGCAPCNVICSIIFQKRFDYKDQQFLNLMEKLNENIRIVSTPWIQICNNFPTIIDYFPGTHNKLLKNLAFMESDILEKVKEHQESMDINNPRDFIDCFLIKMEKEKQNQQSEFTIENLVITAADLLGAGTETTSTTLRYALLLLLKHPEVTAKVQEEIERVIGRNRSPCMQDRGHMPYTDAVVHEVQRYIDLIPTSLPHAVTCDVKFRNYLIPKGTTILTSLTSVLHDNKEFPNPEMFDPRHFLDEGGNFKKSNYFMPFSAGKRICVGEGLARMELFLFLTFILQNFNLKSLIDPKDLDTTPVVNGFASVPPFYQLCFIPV
T1 sequence (P20813 whole entry): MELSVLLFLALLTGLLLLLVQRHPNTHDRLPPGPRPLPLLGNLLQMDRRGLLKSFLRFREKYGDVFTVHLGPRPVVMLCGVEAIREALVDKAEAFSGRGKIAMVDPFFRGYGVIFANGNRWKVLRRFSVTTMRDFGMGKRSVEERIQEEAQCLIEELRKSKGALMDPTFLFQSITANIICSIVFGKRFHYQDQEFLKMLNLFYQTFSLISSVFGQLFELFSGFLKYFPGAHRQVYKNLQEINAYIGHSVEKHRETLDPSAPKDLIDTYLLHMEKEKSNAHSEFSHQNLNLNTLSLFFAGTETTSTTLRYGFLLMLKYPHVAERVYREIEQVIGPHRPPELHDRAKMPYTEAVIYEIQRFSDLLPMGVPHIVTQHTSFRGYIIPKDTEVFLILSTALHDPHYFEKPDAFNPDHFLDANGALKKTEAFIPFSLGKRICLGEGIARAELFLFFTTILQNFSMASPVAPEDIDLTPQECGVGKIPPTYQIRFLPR

O=C(NCc1cnc(C(F)(F)F)s1)c1ccc2c(c1)NC(=O)c1ccccc1S2(=O)=O [ABI-H0731]
HBV DNA levels (HBV [1]; 60× VR EC50 (10 μM ABI-H0731), control 2.2 × 10^6): 2.1 × 10^3 copies/μl | inhibition of HBV DNA replication (HBV [1]; 60× VR EC50 (10 μM)): ~3 logs | inhibition at 1.7 µM (HBV [1]; Hepatitis B virus, HePAD38, 96 h, read-out: inhibition of HBV replication): 98% | IC50 (CYP3A; probe midazolam): 82300 nM | IC50 (CYP3A; probe test (so in the source)): 46200 nM | activity at 0.04 µM (HBV cccDNA [2]; 0.04 μM): 89% | activity at 0.12 µM (HBV cccDNA [2]; 0.12 μM): 95% | activity at […] (HBV cccDNA [2]; 0.37 μM): 98% | activity at 1.11 µM (HBV cccDNA [2]; 1.11 μM): 94% | activity at 3.33 µM (HBV cccDNA [2]; 3.33 μM): 86% | activity at 10 µM (HBV cccDNA [2]; 10.0 μM): 30% | EC50 (HBV Cp P25A; [17]): 169 ± 41 nM | Fold shift (HBV Cp P25A; P25A vs wild type): 1.2 fold | EC50 (HBV Cp I105L; [17]): 41 ± 6 nM | Fold shift (HBV Cp I105L; I105L vs wild type): 0.3 fold | EC50 (HBV Cp T33N; [17]): 3060 nM | Fold shift (HBV Cp T33N; T33N vs wild type): 21 fold | EC50 (HBV Cp T109M; [17]): > 10000 nM | Fold shift (HBV Cp T109M; T109M vs wild type): >68 fold | inhibitory activity against unrelated viruses [3]: no significant inhibitory activity | IC50 (CYP1A2): > 100000 nM | decline in viral load in a patient harboring T109M at baseline (HBV [4]): 1.0 log and 1 log | Levels of encapsidated pgRNA by Northern blotting (HBV [5]; HepAD38, 10-fold over VR EC50): virtually undetectable | rcDNA detection by Southern blot (HBV [5]; HepAD38, 10-fold over VR EC50): could not be detected | activity at 2 µM (HBV [5]; read-out: Capsid DNA % of Control): 10% | activity at 2 µM (HBV [5]; read-out: DNA % of Control (extracted HBV DNA replication intermediates)): 1% | activity at 2 µM (HBV [5]; read-out: Encapsidated pgRNA % of Control): 4% | IC50 (CYP2B6): 27700 nM | fraction unbound at 6 h (in vitro [6]): 0.02 to 0.052 | activity at […] (HBV cccDNA [7]; 0.37 μM): 90% | activity at 1.11 µM (HBV cccDNA [7]; 1.11 μM): 80% | activity at 3.33 µM (HBV cccDNA [7]; 3.33 μM): 56% | activity at 10 µM (HBV cccDNA [7]; 10.0 μM): 15% | fraction unbound at 6 h (in vitro [8]): 0.03 to 0.034 | EC50 (HBV genotype A): 113 ± 22 nM | cytotoxicity (HBV cell culture models): No cytotoxicity was observed | EC50 (HBV [9]): 173 to 307 nM | EC50 (HBV [10]; read-out: Mean EC50, HBeAg): 2210 nM | EC50 (HBV [10]; read-out: Mean EC50, HBsAg): 3000 nM | EC50 (HBV [10]; read-out: Mean EC50, pgRNA): 1840 nM | EC50 (HBV [10]; total intracellular viral DNA, read-out: Mean EC50, viral DNA): 154 ± 18 nM | CC50 relative to VR EC50 [11]: > 50 fold | IC50 (CYP2C19): 42800 nM | half-life at 1 μM (in vitro [12]): 1.75 h | % LBF [13]: 32% | CLpred [13]: 21 mL/min/kg | CLpred as % of liver blood flow ([14]; mouse, 0.5 μM): 12-21% | CLpred ([14]; 1 μM): 2.3 to 21 mL/min/kg | CLpred as % of liver blood flow ([14]; 1 μM): 11-32% | % LBF (in vitro [15]; cynomolgus monkey, 0.5 μM): 15% | CLpred (in vitro [15]; cynomolgus monkey, 0.5 μM): 4.7 mL/min/kg | % LBF (in vitro [15]; cynomolgus monkey, 1 μM): 15% | CLpred (in vitro [15]; cynomolgus monkey, 1 μM): 4.7 mL/min/kg | % LBF (in vitro [15]; dog, 0.5 μM): 65% | CLpred (in vitro [15]; dog, 0.5 μM): 20 mL/min/kg | % LBF (in vitro [15]; dog, 1 μM): 81% | CLpred (in vitro [15]; dog, 1 μM): 25 mL/min/kg | half-life at 1 μM (in vitro [15]; dog): 0.667 h | half-life at 0.5 μM (in vitro [15]; dog): 0.622 h | % LBF (in vitro [15]; human, 0.5 μM): 13% | CLpred (in vitro [15]; human, 0.5 μM): 2.8 mL/min/kg | % LBF (in vitro [15]; human, 1 μM): 11% | CLpred (in vitro [15]; human, 1 μM): 2.3 mL/min/kg | half-life at 1 μM (in vitro [15]; human): 11.6 h | half-life at 0.5 μM (in vitro [15]; human): 6.27 h | half-life at 1 μM (in vitro [15]; monkey): 7.92 h | half-life at 0.5 μM (in vitro [15]; monkey): 5.98 h | % LBF (in vitro [15]; mouse, 0.5 μM): 21% | CLpred (in vitro [15]; mouse, 0.5 μM): 19 mL/min/kg | half-life at 0.5 μM (in vitro [15]; mouse): 2.33 h | % LBF (in vitro [15]; rat, 0.5 μM): 12% | CLpred (in vitro [15]; rat, 0.5 μM): 7.9 mL/min/kg | half-life at 0.5 μM (in vitro [15]; rat): 4.62 h | recovery at 4 days, 10 μM (in vitro [16]): 67 to 84%
